{
  "source": "paper PMC10022191",
  "about": "“Safety, tolerability, pharmacokinetics, and antiviral activity of the novel core protein allosteric modulator ZM-H1505R (Canocapavir) in chronic hepatitis B patients: a randomized multiple-dose escalation trial” (BMC Medicine, 2023)",
  "key": {"[1]": {"target": "genotype D HBV", "test": "primary human hepatocyte (PHH) assay, extracellular HBV DNA by qPCR", "experimental": "To determine the anti-HBV activity of ZM-H1505R, the primary human hepatocyte (PHH) assay was performed in vitro. One day after infection with genotype D HBV, ZM-H1505R was added to the culture medium of PHH. The culture medium supplemented with ZM-H1505R was changed every two days. The culture supernatants were collected, of which the extracellular HBV DNA content was measured by qPCR."}, "[2]": {"test": "phase 1b trial: plasma pharmacokinetics in CHB patients", "settings": "for mean plasma trough concentration relative to protein-binding adjusted HBV DNA EC50 (135 ng/mL): day 28", "experimental": "Blood samples for Canocapavir PK analysis were collected at different time points, and were collected and placed into a vacutainer with an anticoagulant (K2-EDTA), followed by centrifugation at 2,000 g and 4 °C for 10 min to collect the plasma.\nAll of these parameters in the treatment cohorts were analyzed using the descriptive statistics methods provided by SAS 9.1 software (Cary, NC, USA). The dose proportionality of Canocapavir was evaluated by the power model and the linear fixed-effect model. Descriptive analysis was used for safety, tolerability and antiviral activity indexes. Please see Additional file 1 for the detailed methodology.\nThe concentration of Canocapavir was determined using a validated high-performance liquid chromatography-tandem mass spectrometry method of FRONTAGE Laboratories (Shanghai, China), with a detection range of 10–10,000 ng/mL.\nBlood samples for Canocapavir PK analysis were collected at different time points, including preadministration (30 min predosing) and 0.5, 1, 2, 3, 4, 6, 8, 12, and 24 h postdosing on day 1; predosing on days 8, 15, 22, 27, and 28; and 0.5, 1, 2, 3, 4, 6, 8, 12, 24, 48, and 72 h postdosing on day 28."}, "[3]": {"tested_on": "HBV", "test": "phase 1b trial: antiviral activity (serum HBV markers) in CHB patients", "type": "in vivo, Hepatitis B virus", "description": "The changes in the serum levels of HBV DNA, HBV pgRNA, HBcrAg, HBsAg, HBsAb, HBeAg, HBeAb, and HBcAb at different time points were examined. Blood samples were collected on the initial screening day (baseline) and days 1, 8, 15, 22, 29, 43 ± 1, and 57 ± 2 postdosing.\nThe HBV DNA level was measured using a COBAS TaqMan kit (Roche Diagnostics, Pleasanton, CA, USA), according to the manufacturer’s instructions. The lowest detectable level using this kit was 20 IU/mL. The serum levels of HBeAg and HBsAg were quantitatively assessed by a chemiluminescence method using Abbott Architect assays (Abbott Diagnostics; Abbott Park, IL, USA). The lowest detectable level of the kit for HBeAg and HBsAg were 1 and 0.05 IU/mL, respectively."}, "[4]": {"settings": "cited from earlier work"}, "[5]": {"settings": "100 mg q.d., single patient with ALT flare"}},
  "note": "“Also recorded” adds a separate entry of the source.",
  "data": [
    {"compound": "O=C1CO[C@H](c2cn(-c3ccc(Br)cc3)nc2-c2ccc(F)cc2)N1CCc1ccc2[nH]c(=O)[nH]c2c1", "note": "[Canocapavir]", "values": [
      {"measurement": "protein binding-adjusted HBV DNA EC50", "setting": "[1]; protein-binding adjusted", "value": 0.135, "unit": "µg/mL"},
      {"measurement": "protein binding-adjusted HBV DNA EC90", "setting": "[1]; protein-binding adjusted", "value": 0.937, "unit": "µg/mL"},
      {"measurement": "EC50", "setting": "[1]; read-out: EC50, inhibition of extracellular HBV DNA generation, PHH infected with genotype D HBV", "value": 12.3, "unit": "nM"},
      {"measurement": "EC90", "setting": "[1]; read-out: EC90, inhibition of extracellular HBV DNA generation, PHH infected with genotype D HBV", "value": 83.3, "unit": "nM"},
      {"measurement": "mean plasma trough concentration relative to protein-binding adjusted HBV DNA EC50 (135 ng/mL)", "setting": "[2]; 100 mg q.d.", "value": 7.0, "unit": "fold"},
      {"measurement": "mean plasma trough concentration relative to protein-binding adjusted HBV DNA EC50 (135 ng/mL)", "setting": "[2]; 200 mg q.d.", "value": 14.6, "unit": "fold"},
      {"measurement": "power model slope (regression coefficient) of exposure (Cmax and AUC) vs dose", "setting": "[2]; human, in vivo", "value": "0.82–1.14"},
      {"measurement": "time to maximum concentration (Tmax)", "setting": "[2]; human, in vivo", "value": "2 to 3", "unit": "h"},
      {"measurement": "AUC0-∞", "setting": "[2]; human, in vivo, 50 mg", "value": "25,625.6 ± 15,804.7 h·ng/mL"},
      {"measurement": "CL/F", "setting": "[2]; human, in vivo, 50 mg", "value": "3.4 ± 1.5", "unit": "L/h"},
      {"measurement": "Vz/F", "setting": "[2]; human, in vivo, 50 mg", "value": "61.4 ± 23.0", "unit": "L"},
      {"measurement": "t1/2", "setting": "[2]; human, in vivo, 50 mg", "value": "13.0 ± 1.9", "unit": "h"},
      {"measurement": "AUC0-∞", "setting": "[2]; human, in vivo, 100 mg", "value": "59,399.0 ± 18,159.0 h·ng/mL"},
      {"measurement": "CL/F", "setting": "[2]; human, in vivo, 100 mg", "value": "2.5 ± 0.6", "unit": "L/h"},
      {"measurement": "Tmax", "setting": "[2]; human, in vivo, 100 mg", "value": "3.0 (2.0, 4.0) h"},
      {"measurement": "Vz/F", "setting": "[2]; human, in vivo, 100 mg", "value": "42.3 ± 10.9", "unit": "L"},
      {"measurement": "t1/2", "setting": "[2]; human, in vivo, 100 mg", "value": "12.1 ± 3.7", "unit": "h"},
      {"measurement": "AUC0-∞", "setting": "[2]; human, in vivo, 200 mg", "value": "120,090.0 ± 57,318.9 h·ng/mL"},
      {"measurement": "CL/F", "setting": "[2]; human, in vivo, 200 mg", "value": "3.3 ± 2.0", "unit": "L/h"},
      {"measurement": "Vz/F", "setting": "[2]; human, in vivo, 200 mg", "value": "73.6 ± 43.4", "unit": "L"},
      {"measurement": "mean t1/2 after the last dosage", "setting": "[2]; human, in vivo, 200 mg", "value": "12.1 to 15.6", "unit": "h"},
      {"measurement": "t1/2", "setting": "[2]; human, in vivo, 200 mg", "value": "15.6 ± 2.3", "unit": "h"},
      {"measurement": "patients with HBV DNA reduced below the lower limit of quantification", "setting": "[3]; 50 mg q.d.", "value": "0 number of patients (percentage"},
      {"measurement": "patients with HBV pgRNA reduced below the lower limit of quantification (~ 2 log10 copies/mL)", "setting": "[3]; 50 mg q.d.", "value": "1 (12.5%) number of patients (percentage"},
      {"measurement": "maximum mean HBcrAg decrease", "setting": "[3]; 50 mg q.d., 28 days", "value": -0.30, "unit": "log10 kU/mL"},
      {"measurement": "mean maximum HBV DNA decline from baseline", "setting": "[3]; 50 mg q.d., 28 days", "value": -1.54, "unit": "log10 IU/mL"},
      {"measurement": "mean maximum HBV pgRNA decline from baseline", "setting": "[3]; 50 mg q.d., 28 days", "value": -1.53, "unit": "log10 copies/mL"},
      {"measurement": "HBV DNA response, subject E2003 with pre-existing HBc P25S substitution", "setting": "[3]; 50 mg q.d., HBeAg (+) patient", "value": "no decrease"},
      {"measurement": "HBV pgRNA response, subject E2003 with pre-existing HBc P25S substitution", "setting": "[3]; 50 mg q.d., HBeAg (+) patient", "value": "only slightly decreased; also recorded: only a slight decrease"},
      {"measurement": "patients with HBV DNA reduced below the lower limit of quantification", "setting": "[3]; 100 mg q.d.", "value": "1 (12.5%) number of patients (percentage"},
      {"measurement": "patients with HBV pgRNA reduced below the lower limit of quantification (~ 2 log10 copies/mL)", "setting": "[3]; 100 mg q.d.", "value": "1 (12.5%) number of patients (percentage"},
      {"measurement": "maximum mean HBcrAg decrease", "setting": "[3]; 100 mg q.d., 28 days", "value": -0.61, "unit": "log10 kU/mL"},
      {"measurement": "mean maximum HBV DNA decline from baseline", "setting": "[3]; 100 mg q.d., 28 days", "value": -2.50, "unit": "log10 IU/mL"},
      {"measurement": "mean maximum HBV pgRNA decline from baseline", "setting": "[3]; 100 mg q.d., 28 days", "value": -2.35, "unit": "log10 copies/mL"},
      {"measurement": "maximum decrease of HBV DNA, patient E3010", "setting": "[3]; [5]", "value": -3.23, "unit": "log10 IU/mL"},
      {"measurement": "maximum decrease of HBV pgRNA, patient E3010", "setting": "[3]; [5]", "value": -3.71, "unit": "log10 copies/mL"},
      {"measurement": "maximum decrease of HBcrAg, patient E3010", "setting": "[3]; [5]", "value": -1.96, "unit": "log10 kU/mL"},
      {"measurement": "maximum decrease of HBsAg, patient E3010", "setting": "[3]; [5]", "value": -0.22, "unit": "log10 IU/mL"},
      {"measurement": "patients with HBV DNA reduced below the lower limit of quantification", "setting": "[3]; 200 mg q.d.", "value": "1 (12.5%) number of patients (percentage"},
      {"measurement": "patients with HBV pgRNA reduced below the lower limit of quantification (~ 2 log10 copies/mL)", "setting": "[3]; 200 mg q.d.", "value": "4 (50.0%) number of patients (percentage"},
      {"measurement": "maximum mean HBcrAg decrease", "setting": "[3]; 200 mg q.d., 28 days", "value": -0.51, "unit": "log10 kU/mL"},
      {"measurement": "mean maximum HBV DNA decline from baseline", "setting": "[3]; 200 mg q.d., 28 days", "value": -2.75, "unit": "log10 IU/mL"},
      {"measurement": "mean maximum HBV pgRNA decline from baseline", "setting": "[3]; 200 mg q.d., 28 days", "value": -2.34, "unit": "log10 copies/mL"},
      {"measurement": "change of HBeAg level", "setting": "[3]; 50–200 mg q.d., 28 days", "value": "Neither the HBsAg nor HBeAg levels decreased"},
      {"measurement": "change of HBsAg level", "setting": "[3]; 50–200 mg q.d., 28 days", "value": "Neither the HBsAg nor HBeAg levels decreased"},
      {"measurement": "changes in levels of HBsAb, HBeAb, HBcAb", "setting": "[3]; 50–200 mg q.d., 28 days", "value": "no clinically significant changes"},
      {"measurement": "accumulation rate after multiple administration", "setting": "[4]; healthy subjects", "value": "1.7–2.3"},
      {"measurement": "dose proportionality of mean plasma AUC and Cmax", "setting": "[4]; healthy subjects", "value": "increased in a dose-proportional manner"},
      {"measurement": "food effect on drug absorption", "setting": "[4]; healthy subjects", "value": "Food had an effect on the drug absorption"},
      {"measurement": "half-life after multiple administration", "setting": "[4]; healthy subjects", "value": "12.2 to 21.7", "unit": "h"},
      {"measurement": "margin between plasma exposure and anti-HBV activity EC50 in vitro", "setting": "[4]; healthy subjects", "value": "11.2–37.5 fold"},
      {"measurement": "most common AE", "setting": "[4]; healthy subjects", "value": "increased ALT"},
      {"measurement": "safety and tolerability in healthy subjects", "setting": "[4]; single doses 25–450 mg, multiple doses 75–300 mg q.d. for 14 days", "value": "safe and well tolerated"}
    ]}
  ]
}
